Data: US9228952B2, “Hematopoietic stem cell identification probe” (CANON KABUSHIKI KAISHA, priority 2012, dated 2016)

Columns and labels:
[1] = Measurement of fluorescence characteristics of compounds (fluorescence spectrophotometer); format: physicochemical; settings: 5 μM DMSO solution
Description: With respect to each of the compounds 7 to 23, a 5 μM DMSO solution was prepared, and an excitation wavelength and a fluorescence wavelength were measured by using a fluorescence spectrophotometer FL4500 manufactured by Hitachi High-Technologies Corporation (Table 1).

[2] = system: hematopoietic stem cells (bone marrow cells); assay: Identification of hematopoietic stem cells in stained bone marrow cells by FACS with antibody markers (Experimental Examples 1-17, Comparative Examples 1-2); format: cell-based, C57BL/6 mouse; parameters: key to Identification of hematopoietic stem cells: A: Hematopoietic stem cells are identified very well.; B: Hematopoietic stem cells are identified well.; C: Hematopoietic stem cells are poorly identified; settings: for Identification of hematopoietic stem cells: mouse bone marrow cells, FACS
Description: A 1 mM DMSO solution of the compound 7 was added to an HBSS buffer containing 2% of FBS and 10 mM of HEPES, so as to obtain a stain of the compound 7 in a concentration of 1 μM. Bone marrow cells collected from a femur of a C57BL/6 mouse (of 12 weeks old) and hemolyzed were added to the stain in an amount of 1×10^6 cells/mL for exposure at 37° C. for 30 minutes. After the exposure, the cells were precipitated by centrifuge for removing the stain, and a blocking treatment was performed with 2.4G2 (anti-mouse Fcγ receptor II/III antibody-producing hybridoma supernatant). The blocked cells were further subjected to immunofluorescence staining with an anti c-Kit antibody, an anti Sca-1 antibody, an anti CD34 antibody and Lineage Marker. Furthermore, the cells were subjected to dead cell staining with TO-PRO-3. The respective antibodies used for fluorescence staining were selected so that the respective fluorescence wavelengths might not overlap one another and might not overlap the fluorescence wavelength of the compound 7 and the fluorescence wavelength of TO-PRO-3. Next, the resulting cells were analyzed with FACS Aria II cell sorter manufactured by BD Biosciences. In the analysis, cell populations having a low TO-PRO-3 signal were regarded as a target, so that the analysis could be performed on a cell population excluding dead cells.
First, fluorescence intensities of the cells obtained by analyzing fluorescence signals derived from the compound 7 based on signal intensities in two channels excited at 488 nm (PE-Cy5; 660/20 nm and PerCP-Cy 5.5; 710/50 nm: center wavelength/wavelength width) were developed into a cytogram.
Furthermore, among Lineage Marker negative cell fractions, cell fractions of Sca-1 positive, c-Kit positive and CD34 negative, which are used as markers for hematopoietic stem cells, were developed into cytograms as illustrated in FIG. 2 with respect to the two fluorescence signals derived from the compound 7 as in FIG. 1. […] Furthermore, merely cells identified by the compound 7 were separated by sorting.
Fluorescence signals derived from the compounds 8 to 23 were analyzed in the same manner as in Experimental Example 1 except that the compound 7 used in Experimental Example 1 was changed to each of the compounds 8 to 23.
Fluorescence signals derived from fluorescein were analyzed in the same manner as in Experimental Example 1 except that the compound 7 used in Experimental Example 1 was changed to fluorescein.
Fluorescence signals derived from Mito Tracker® Green FM were analyzed in the same manner as in Experimental Example 1 except that the compound 7 used in Experimental Example 1 was changed to Mito Tracker® Green FM.
The identification was evaluated in the following three grades A to C: […]

[3] = system: c-Kit positive hematopoietic stem cells (bone marrow cells); assay: Experimental Example 19: exposure to compound 7 in the presence of test substances, c-Kit staining, FACS; format: cell-based, mouse
Description: Cells collected from a mouse in the same manner as in Experimental Example 1 were exposed to the compound 7 in the presence of test substances of fumitremorgin C and digoxin (both in 1 μM). After performing a blocking treatment in the same manner as in Experimental Example 1, the resulting cells were stained with an anti c-Kit antibody, that is, a marker for hematopoietic stem cells and hematopoietic precursor cells. The cells were further subjected to the dead cell staining with TO-PRO-3. Next, the cells were analyzed with FACS Aria II cell sorter manufactured by BD Biosciences. In the analysis, cell populations having a low TO-PRO-3 signal were regarded as a target, so that the analysis could be performed on a cell population excluding dead cells.
In other words, hematopoietic stem cell groups that were c-Kit positive and negative for the compound 7-derived signal were confirmed to be reduced by adding the test substances.

[4] = system: CD48 negative and CD150 positive fraction of bone marrow cells; assay: Experimental Example 18: compound 7 staining with anti CD48 / anti CD150 antibody markers, flow cytometry; format: cell-based, mouse; settings: cytogram of two compound 7-derived fluorescence signals
Text: Cells collected from a mouse were subjected to the exposure to the compound 7 and a blocking treatment in the same manner as in Experimental Example 1. In order to evaluate incorporation of antibody markers, used as test substances, of an anti CD48 antibody and an anti CD150 antibody by hematopoietic stem cells, the blocked cells were further stained with the anti CD48 antibody and the anti CD150 antibody. Furthermore, the resulting cells were subjected to dead cell staining with TO-PRO-3. Next, the cells were analyzed with an FACS Canto II flow cytometer manufactured by BD Biosciences. In the analysis, cell populations having a low TO-PRO-3 signal were regarded as a target, so that the analysis could be performed on a cell population excluding dead cells.

[5] = cells exposed to compound 7 in the presence of test substance 1 μM

## CCN1C(=O)/C(=c2\s/c(=C/c3cc(Br)c4c(c3)C3CCCC3N4c3ccc(Br)cc3)c(=O)n2CC(=O)O)SC1=S (stereo not shown) [Compound 8]
[1]
  Excitation wavelength λex: 513 nm
  Fluorescence wavelength λem: 600 nm
[2]; stain 1 μM, 37° C., 30 minutes
  Identification of hematopoietic stem cells: A

## O=C(O)CNC(=O)CN1C(=O)/C(=C\c2ccc3c(c2)C2CCCC2N3c2ccccc2)SC1=S (stereo not shown) [Compound 23]
[1]
  Excitation wavelength λex: 499 nm
  Fluorescence wavelength λem: 598 nm
[2]; stain 1 μM, 37° C., 30 minutes
  Identification of hematopoietic stem cells: A

## CCN1C(=O)/C(=c2\s/c(=C/c3ccc4c(c3)C3CCCC3N4c3ccc(OC)cc3)c(=O)n2CC(=O)O)SC1=S (stereo not shown) [Compound 9]
[1]
  Excitation wavelength λex: 543 nm
  Fluorescence wavelength λem: 638 nm
[2]; stain 1 μM, 37° C., 30 minutes
  Identification of hematopoietic stem cells: A

## CCN1C(=O)S/C(=c2/s/c(=C/c3ccc4c(c3)C3CCCC3N4Cc3ccccc3)c(=O)n2CC(=O)O)C1=O (stereo not shown) [Compound 16]
[1]
  Excitation wavelength λex: 500 nm
  Fluorescence wavelength λem: 578 nm
[2]; stain 1 μM, 37° C., 30 minutes
  Identification of hematopoietic stem cells: B

## COc1ccc(N2c3ccc(/C=c4/s/c(=C5/SC(=S)N(Cc6ccccc6)C5=O)n(CC(=O)O)c4=O)cc3C3CCCC32)cc1 (stereo not shown) [Compound 11]
[1]
  Excitation wavelength λex: 542 nm
  Fluorescence wavelength λem: 643 nm
[2]; stain 1 μM, 37° C., 30 minutes
  Identification of hematopoietic stem cells: A

## CCN1C(=O)/C(=c2\s/c(=C/c3ccc4c(c3)C3CCCC3N4c3ccc(SC)cc3)c(=O)n2CC(=O)O)SC1=S (stereo not shown) [Compound 13]
[1]
  Excitation wavelength λex: 539 nm
  Fluorescence wavelength λem: 636 nm
[2]; stain 1 μM, 37° C., 30 minutes
  Identification of hematopoietic stem cells: A

## CCN1C(=O)/C(=c2\s/c(=C/c3ccc4c(c3)C3CCCC3N4c3cccc(SC)c3)c(=O)n2CC(=O)O)SC1=S (stereo not shown) [Compound 21]
[1]
  Excitation wavelength λex: 530 nm
  Fluorescence wavelength λem: 612 nm
[2]; stain 1 μM, 37° C., 30 minutes
  Identification of hematopoietic stem cells: A

## COc1ccc2c3c([nH]c2c1)[C@H](C=C(C)C)N1C(=O)[C@@H]2CCCN2C(=O)[C@@H]1C3 [fumitremorgin C]
[3]; [5]
  c-Kit positive, compound 7-derived signal negative hematopoietic stem cells in the whole cells: 0.00%

## CCN1C(=O)/C(=c2\s/c(=C/c3ccc4c(c3)C3CCCC3N4c3ccccc3)c(=O)n2CC(=O)O)SC1=S (stereo not shown) [Compound 12]
[1]
  Excitation wavelength λex: 531 nm
  Fluorescence wavelength λem: 615 nm
[2]; stain 1 μM, 37° C., 30 minutes
  Identification of hematopoietic stem cells: A

## CCCN1C(=O)/C(=c2\s/c(=C/c3ccc4c(c3)C3CCCC3N4c3ccc(OC)cc3)c(=O)n2CC)SC1=S (stereo not shown) [Compound 18]
[1]
  Excitation wavelength λex: 539 nm
  Fluorescence wavelength λem: 636 nm
[2]; stain 1 μM, 37° C., 30 minutes
  Identification of hematopoietic stem cells: A

## CCN1C(=O)/C(=c2\s/c(=C/c3cc(Br)c4c(c3)C3CCCC3N4Cc3ccccc3)c(=O)n2CC(=O)O)SC1=S (stereo not shown) [Compound 14]
[1]
  Excitation wavelength λex: 596 nm
  Fluorescence wavelength λem: 520 nm
[2]; stain 1 μM, 37° C., 30 minutes
  Identification of hematopoietic stem cells: A

## CCCCCN1C(=O)/C(=c2\s/c(=C/c3ccc4c(c3)C3CCCC3N4c3ccc(OC)cc3)c(=O)n2CC)SC1=S (stereo not shown) [Compound 19]
[1]
  Excitation wavelength λex: 538 nm
  Fluorescence wavelength λem: 638 nm
[2]; stain 1 μM, 37° C., 30 minutes
  Identification of hematopoietic stem cells: B

## O=C1OC2(c3ccc(O)cc3Oc3cc(O)ccc32)c2ccccc21 [Fluorescein, fluorescein, reference compound]
[2]; stain 1 μM, 37° C., 30 minutes
  Identification of hematopoietic stem cells: C (not stained

## C[C@H]1O[C@@H](O[C@H]2[C@@H](O)C[C@H](O[C@H]3[C@@H](O)C[C@H](O[C@H]4CC[C@@]5(C)[C@H](CC[C@@H]6[C@@H]5C[C@@H](O)[C@]5(C)[C@@H](C7=CC(=O)OC7)CC[C@]65O)C4)O[C@@H]3C)O[C@@H]2C)C[C@H](O)[C@@H]1O [digoxin]
[3]; [5]
  c-Kit positive, compound 7-derived signal negative hematopoietic stem cells in the whole cells: 0.50%

## C=CCN1C(=O)/C(=c2\s/c(=C/c3ccc4c(c3)C3CCCC3N4c3ccc(OC)cc3)c(=O)n2CC(=O)O)SC1=S (stereo not shown) [Compound 15]
[1]
  Excitation wavelength λex: 504 nm
  Fluorescence wavelength λem: 606 nm
[2]; stain 1 μM, 37° C., 30 minutes
  Identification of hematopoietic stem cells: A

## CCN1C(=O)/C(=c2\s/c(=C/c3ccc4c(c3)C3CCCC3N4Cc3ccccc3)c(=O)n2CC(=O)O)SC1=S (stereo not shown) [Compound 17]
[1]
  Excitation wavelength λex: 535 nm
  Fluorescence wavelength λem: 612 nm
[2]; stain 1 μM, 37° C., 30 minutes
  Identification of hematopoietic stem cells: A

## COc1ccc(N2c3ccc(/C=C4/SC(=S)N(CC(=O)NCC(=O)O)C4=O)cc3C3CCCC32)cc1 (stereo not shown) [Compound 22]
[1]
  Excitation wavelength λex: 511 nm
  Fluorescence wavelength λem: 626 nm
[2]; stain 1 μM, 37° C., 30 minutes
  Identification of hematopoietic stem cells: A

## O=C(O)Cn1c(=O)/c(=C\c2ccc3c(c2)C2CCCC2N3Cc2ccccc2)s/c1=C1/SC(=S)N(Cc2ccccc2)C1=O (stereo not shown) [Compound 10]
[1]
  Excitation wavelength λex: 540 nm
  Fluorescence wavelength λem: 614 nm
[2]; stain 1 μM, 37° C., 30 minutes
  Identification of hematopoietic stem cells: A

## CCn1c(=O)/c(=C\c2ccc3c(c2)C2CCCC2N3c2ccccc2)s/c1=C1/SC(=S)N(CC(=O)O)C1=O (stereo not shown) [Compound 20]
[1]
  Excitation wavelength λex: 533 nm
  Fluorescence wavelength λem: 615 nm
[2]; stain 1 μM, 37° C., 30 minutes
  Identification of hematopoietic stem cells: B

## CCCCN1C(=O)/C(=c2\s/c(=C/c3ccc4c(c3)C3CCCC3N4c3ccc(OC)cc3)c(=O)n2CC)SC1=S (stereo not shown) [Compound 7]
[1]
  Excitation wavelength λex: 539 nm
  Fluorescence wavelength λem: 638 nm
[2]; same manner as Experimental Example 1
  Whether hematopoietic stem cells can be identified (in words): hematopoietic stem cells can be identified
[2]; stain 1 μM, 37° C., 30 minutes
  Identification of hematopoietic stem cells: A
[2]; stain 1 μM, 37° C., 30 minutes, two channels excited at 488 nm
  Lineage Marker negative, Sca-1 positive, c-Kit positive and CD34 negative hematopoietic stem cell fractions found in cell population having low incorporation of the probe: 94.7%
[4]
  Cells of CD48 negative and CD150 positive fraction present in region where hematopoietic stem cells were identified: 89.4%
[3]; in the absence of an inhibitor (w/o inhibitors)
  c-Kit positive, compound 7-derived signal negative hematopoietic stem cells in the whole cells: 0.75%
